Experimental data: PubChem BioAssay (NCI)
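Here, GI50 denotes the concentration required for 50% inhibition of growth. TGI is the concentration that stops growth completely.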

Tests used:
Test in all cases: NCI-60 cell line screen, 384-well format
[1] = tested on: 786-0 renal
[2] = tested on: A498 renal
[3] = tested on: A549 NSCLC
[4] = tested on: ACHN renal
[5] = tested on: BT-549 breast
[6] = tested on: CAKI-1 renal
[7] = tested on: CCRF-CEM leukemia
[8] = tested on: COLO 205 colon
[9] = tested on: DU-145 prostate
[10] = tested on: EKVX NSCLC
[11] = tested on: HCC-2998 colon
[12] = tested on: HCT-116 colon
[13] = tested on: HCT-15 colon
[14] = tested on: HL-60(TB) leukemia
[15] = tested on: HOP-62 NSCLC
[16] = tested on: HOP-92 NSCLC
[17] = tested on: HS 578T breast
[18] = tested on: HT29 colon
[19] = tested on: IGROV1 ovarian
[20] = tested on: KM12 colon
[21] = tested on: LOX IMVI melanoma
[22] = tested on: M14 melanoma
[23] = tested on: MALME-3M melanoma
[24] = tested on: MCF7 breast
[25] = tested on: MDA-MB-231 breast
[26] = tested on: MDA-MB-435 melanoma
[27] = tested on: MDA-MB-468 breast
[28] = tested on: MOLT-4 leukemia
[29] = tested on: NCI-H226 lung
[30] = tested on: NCI-H23 lung
[31] = tested on: NCI-H322M lung
[32] = tested on: NCI-H460 NSCLC
[33] = tested on: NCI-H522 lung
[34] = tested on: NCI/ADR-RES ovarian
[35] = tested on: OVCAR-3 ovarian
[36] = tested on: OVCAR-4 ovarian
[37] = tested on: OVCAR-5 ovarian
[38] = tested on: OVCAR-8 ovarian
[39] = tested on: PC-3 prostate
[40] = tested on: RPMI-8226 leukemia
[41] = tested on: RXF 393 renal
[42] = tested on: SF-268 CNS
[43] = tested on: SF-295 CNS
[44] = tested on: SF-539 CNS
[45] = tested on: SK-MEL-28 melanoma
[46] = tested on: SK-MEL-5 melanoma
[47] = tested on: SK-OV-3 ovarian
[48] = tested on: SN12C renal
[49] = tested on: SNB-19 CNS
[50] = tested on: SNB-75 CNS
[51] = tested on: SR leukemia
[52] = tested on: SW-620 colon
[53] = tested on: T-47D breast
[54] = tested on: TK-10 renal
[55] = tested on: U251 glioblastoma
[56] = tested on: UACC-257 melanoma
[57] = tested on: UACC-62 melanoma
[58] = tested on: UO-31 renal

Structure (SMILES): c1cc(CN2CCCNCCNCCCNCC2)ccc1CN1CCCNCCNCCCNCC1
- GI50 [1]: > 100 µM
- TGI [1]: > 100 µM
- GI50 [2]: > 100 µM
- TGI [2]: > 100 µM
- GI50 [3]: > 100 µM
- TGI [3]: > 100 µM
- GI50 [4]: > 100 µM
- TGI [4]: > 100 µM
- GI50 [5]: > 100 µM
- TGI [5]: > 100 µM
- GI50 [6]: > 100 µM
- TGI [6]: > 100 µM
- GI50 [7]: > 100 µM
- TGI [7]: > 100 µM
- GI50 [8]: > 100 µM
- TGI [8]: > 100 µM
- GI50 [9]: > 100 µM
- TGI [9]: > 100 µM
- GI50 [10]: > 100 µM
- TGI [10]: > 100 µM
- GI50 [11]: > 100 µM
- TGI [11]: > 100 µM
- GI50 [12]: > 100 µM
- TGI [12]: > 100 µM
- GI50 [13]: > 100 µM
- TGI [13]: > 100 µM
- GI50 [14]: > 100 µM
- TGI [14]: > 100 µM
- GI50 [15]: > 100 µM
- TGI [15]: > 100 µM
- GI50 [16]: > 100 µM
- TGI [16]: > 100 µM
- GI50 [17]: > 100 µM
- TGI [17]: > 100 µM
- GI50 [18]: > 100 µM
- TGI [18]: > 100 µM
- GI50 [19]: > 100 µM
- TGI [19]: > 100 µM
- GI50 [20]: > 100 µM
- TGI [20]: > 100 µM
- GI50 [21]: > 100 µM
- TGI [21]: > 100 µM
- GI50 [22]: > 100 µM
- TGI [22]: > 100 µM
- GI50 [23]: > 100 µM
- TGI [23]: > 100 µM
- GI50 [24]: > 100 µM
- TGI [24]: > 100 µM
- GI50 [25]: > 100 µM
- TGI [25]: > 100 µM
- GI50 [26]: > 100 µM
- TGI [26]: > 100 µM
- GI50 [27]: > 100 µM
- TGI [27]: > 100 µM
- GI50 [28]: > 100 µM
- TGI [28]: > 100 µM
- GI50 [29]: > 100 µM
- TGI [29]: > 100 µM
- GI50 [30]: > 100 µM
- TGI [30]: > 100 µM
- GI50 [31]: > 100 µM
- TGI [31]: > 100 µM
- GI50 [32]: > 100 µM
- TGI [32]: > 100 µM
- GI50 [33]: > 100 µM
- TGI [33]: > 100 µM
- GI50 [34]: > 100 µM
- TGI [34]: > 100 µM
- GI50 [35]: > 100 µM
- TGI [35]: > 100 µM
- GI50 [36]: > 100 µM
- TGI [36]: > 100 µM
- GI50 [37]: > 100 µM
- TGI [37]: > 100 µM
- GI50 [38]: > 100 µM
- TGI [38]: > 100 µM
- GI50 [39]: > 100 µM
- TGI [39]: > 100 µM
- GI50 [40]: > 100 µM
- TGI [40]: > 100 µM
- GI50 [41]: > 100 µM
- TGI [41]: > 100 µM
- GI50 [42]: > 100 µM
- TGI [42]: > 100 µM
- GI50 [43]: > 100 µM
- TGI [43]: > 100 µM
- GI50 [44]: > 100 µM
- TGI [44]: > 100 µM
- GI50 [45]: > 100 µM
- TGI [45]: > 100 µM
- GI50 [46]: > 100 µM
- TGI [46]: > 100 µM
- GI50 [47]: > 100 µM
- TGI [47]: > 100 µM
- GI50 [48]: > 100 µM
- TGI [48]: > 100 µM
- GI50 [49]: > 100 µM
- TGI [49]: > 100 µM
- GI50 [50]: > 100 µM
- TGI [50]: > 100 µM
- GI50 [51]: > 100 µM
- TGI [51]: > 100 µM
- GI50 [52]: > 100 µM
- TGI [52]: > 100 µM
- GI50 [53]: > 100 µM
- TGI [53]: > 100 µM
- GI50 [54]: > 100 µM
- TGI [54]: > 100 µM
- GI50 [55]: > 100 µM
- TGI [55]: > 100 µM
- GI50 [56]: > 100 µM
- TGI [56]: > 100 µM
- GI50 [57]: > 100 µM
- TGI [57]: > 100 µM
- GI50 [58]: > 100 µM
- TGI [58]: > 100 µM
